In EP3183252B1, “OXALATE SALT OF RUXOLITINIB” (ratiopharm GmbH, priority 2014, dated 2016):
Counter-ions that a name gives are not always drawn.

Assays:
Type in all cases: physicochemical
[1] = pH-dependencies of solubility at 37°C; settings: for solubility at 0.5 h / solubility at 1 h / solubility at 24 h / solubility / pH dependency of solubility (in words): 37°C; for solubility at 1 h / solubility at 24 h: thermodynamic from solid; for pH dependency of solubility (in words): pH 4.5 and 6.8
Text: The intestinal tract obeys different pH ranges, which vary from pH 1 to 2 of the empty stomach, pH 3-5 for stomach filled with chyme, to pH 5-7.5 of the colon.

[2] = Dynamic vapor sorption experiment (hygroscopicity)
Protocol: Vapour sorption experiments were performed in the instrument SPSx-1µ (Projekt Messtechnik, Ulm, Germany) at temperature of 25°C and the humidity cycles as shown below.
A dynamic vapor sorption experiment was performed with Ruxolitinib oxalate. At a constant temperature of 25°C, the substance was exposed to two cycles of varying relative humidity (rh) (40% → 0% →95% (75% r.h. kept constant for 48h) → 0% →40%). Figure 3a presents the relative weight change as a function of time and relative humidity and in […] changes are illustrated as a function of humidity.

[3] = Storage stability: chemical purity by HPLC/UV; settings: for Chemical purity ([area-%] at λ=230 nm): 40°C/75% rh
Protocol: (§1) Samples were stored in closed and open containers at 25°C/60% rh and at 40°C/75% rh and analyzed after 4, 8 and 12 weeks.
The results of determination of the chemical purity during storage at 40°C/75% rh are summarized. Both salts remained chemically stable when stored under these conditions. Therefore, the analysis of samples, which were stored at 25°C/60% rh, was omitted.

[4] = Storage stability: solid state by XRPD analysis
Protocol: The sample was analyzed on a D8 Advance X-ray powder diffractometer (Bruker-AXS, Karlsruhe, Germany). The sample holder was rotated in a plane parallel to its surface at 20 rpm during the measurement. The raw data were analyzed with the program EVA (Bruker-AXS, Germany). The samples were layered onto a silicon specimen holder
as §1
The solid-state stability was investigated by XRPD analysis. The results of evaluation are summarized. Ruxolitinib phosphate and Ruxolitinib oxalate remained unchanged throughout the observation period.

[5] = 20mM sodium acetate pH 4.5, 0.5 h
[6] = aqueous buffer, 20mM sodium acetate pH 4.5, 1 h
[7] = aqueous buffer, 20mM sodium acetate pH 4.5, 24 h
[8] = aqueous buffer, 50mM KH2PO4 pH 6.8, 1 h
[9] = aqueous buffer, 50mM KH2PO4 pH 6.8, 24 h
[10] = pH 1.2, simulated gastric fluid, 0.1M HCl pH1.2, 1 h
[11] = pH 1.2, simulated gastric fluid, 0.1M HCl pH1.2, 24 h

N#CC[C@H](C1CCCC1)n1cc(-c2ncnc3[nH]ccc23)cn1 [Ruxolitinib oxalate]
solubility overall (in words) [1]: good solubility | solubility at 0.5 h [1, 5]: 24.1 mg/mL | solubility at 0.5 h ([1]; 50mM KH2PO4 pH 6.8, 0.5 h): 21.5 mg/mL | solubility at 1 h [1, 6]: 27.7 mg/mL | solubility at 24 h [1, 7]: 29.9 mg/mL | solubility at 1 h [1, 8]: 23.5 mg/mL | solubility at 24 h [1, 9]: 23.9 mg/mL | solubility at 1 h [1, 10]: 56.3 mg/mL | solubility at 24 h [1, 11]: 57.4 mg/mL | solubility at 0.5 h ([1]; pH 1.2, 0.1M HCl pH1.2, 0.5 h): 57.8 mg/mL | solid state by XRPD analysis after the DVS experiment, compared to prior [2]: identical | stable upon storage for ([3]; 25°C and 60% relative humidity (RH)): at least 12 weeks | stable upon storage for ([3]; 40°C/75% RH): at least 12 weeks | Chemical purity ([area-%] at λ=230 nm) ([3]; closed, 4 weeks): 100,00% area-% | Chemical purity ([area-%] at λ=230 nm) ([3]; closed, 8 weeks): 99,95% area-% | Chemical purity ([area-%] at λ=230 nm) ([3]; closed, 12 weeks): 99,90% area-% | Chemical purity ([area-%] at λ=230 nm) ([3]; closed, t = 00 (= initial)): 99,89 area-% | Chemical purity ([area-%] at λ=230 nm) ([3]; open, 4 weeks): 100,00% area-% | Chemical purity ([area-%] at λ=230 nm) ([3]; open, 8 weeks): 99,91% area-% | Chemical purity ([area-%] at λ=230 nm) ([3]; open, 12 weeks): 99,85% area-% | Chemical purity ([area-%] at λ=230 nm) ([3]; open, t = 00 (= initial)): 99,89 area-%

N#CC[C@H](C1CCCC1)n1cc(-c2ncnc3[nH]ccc23)cn1 (stereo in doubt) [Ruxolitinib sulfate]
solubility ([1]; 20mM sodium acetate pH 4.5, 0.5 h, 30 min): 10.4 mg/mL | solubility ([1]; 20mM sodium acetate pH 4.5, 1 h, 60 min): 10.6 mg/mL | solubility ([1]; 20mM sodium acetate pH 4.5, 24 h, 1440 min): 9.5 mg/mL | solubility ([1]; 50mM KH2PO4 pH 6.8, 0.5 h, 30 min): 9.6 mg/mL | solubility ([1]; 50mM KH2PO4 pH 6.8, 1 h, 60 min): 9.8 mg/mL | solubility ([1]; 50mM KH2PO4 pH 6.8, 24 h, 1440 min): 8.3 mg/mL | solubility ([1]; 0.1M HCl pH1.2, 0.5 h, 30 min): 18.5 mg/mL | solubility ([1]; 0.1M HCl pH1.2, 1 h, 60 min): 18.5 mg/mL | solubility ([1]; 0.1M HCl pH1.2, 24 h, 1440 min): 16.7 mg/mL | pH dependency of solubility (in words) [1]: less pH dependency

N#CC[C@H](C1CCCC1)n1cc(-c2ncnc3[nH]ccc23)cn1 [Ruxolitinib phosphate]
solubility at 1 h ([1]; 20mM sodium acetate buffer, aqueous buffer, 20mM sodium acetate pH 4.5, 1 h): 6 mg/mL | solubility at 24 h ([1]; 20mM sodium acetate buffer, aqueous buffer, 20mM sodium acetate pH 4.5, 24 h): 6.8 mg/mL | solubility at 1 h ([1]; 50mM KH2PO4 buffer, aqueous buffer, 50mM KH2PO4 pH 6.8, 1 h): 4.7 mg/mL | solubility at 24 h ([1]; 50mM KH2PO4 buffer, aqueous buffer, 50mM KH2PO4 pH 6.8, 24 h): 5.7 mg/mL | solubility (in words) ([1]; higher pH points than pH 1.2): considerably less solubility | solubility (in words) ([1]; pH 1.2): good solubility | solubility at 1 h [1, 10]: 43.2 mg/mL | solubility at 24 h [1, 11]: 44 mg/mL | Chemical purity ([area-%] at λ=230 nm) ([3]; closed, 4 weeks): 99,04% area-% | Chemical purity ([area-%] at λ=230 nm) ([3]; closed, 8 weeks): 99,20% area-% | Chemical purity ([area-%] at λ=230 nm) ([3]; closed, 12 weeks): 99,03% area-% | Chemical purity ([area-%] at λ=230 nm) ([3]; closed, t = 00 (= initial)): 99,05 area-% | Chemical purity ([area-%] at λ=230 nm) ([3]; open, 4 weeks): 99,13% area-% | Chemical purity ([area-%] at λ=230 nm) ([3]; open, 8 weeks): 99,28% area-% | Chemical purity ([area-%] at λ=230 nm) ([3]; open, 12 weeks): 99,10% area-% | Chemical purity ([area-%] at λ=230 nm) ([3]; open, t = 00 (= initial)): 99,05 area-% | Evaluation of XRPD analysis ([4]; 25°C/60% rh, closed, 4 weeks): unchanged | Evaluation of XRPD analysis ([4]; 25°C/60% rh, closed, 8 weeks): unchanged | Evaluation of XRPD analysis ([4]; 25°C/60% rh, closed, 12 weeks): unchanged | Evaluation of XRPD analysis ([4]; 25°C/60% rh, open, 4 weeks): unchanged | Evaluation of XRPD analysis ([4]; 25°C/60% rh, open, 8 weeks): unchanged | Evaluation of XRPD analysis ([4]; 25°C/60% rh, open, 12 weeks): unchanged | Evaluation of XRPD analysis ([4]; 40°C/75% rh, closed, 4 weeks): unchanged | Evaluation of XRPD analysis ([4]; 40°C/75% rh, closed, 8 weeks): unchanged | Evaluation of XRPD analysis ([4]; 40°C/75% rh, closed, 12 weeks): unchanged | Evaluation of XRPD analysis ([4]; 40°C/75% rh, open, 4 weeks): unchanged | Evaluation of XRPD analysis ([4]; 40°C/75% rh, open, 8 weeks): unchanged | Evaluation of XRPD analysis ([4]; 40°C/75% rh, open, 12 weeks): unchanged

N#CC[C@H](C1CCCC1)n1cc(-c2ncnc3[nH]ccc23)cn1 (stereo in doubt) [Ruxolitinib maleate]
solubility at 0.5 h [1, 5]: 2.8 mg/mL | solubility at 0.5 h ([1]; 50mM KH2PO4 pH 6.8, 0.5 h): 2.9 mg/mL | solubility at 1 h [1, 6]: 3.2 mg/mL | solubility at 24 h [1, 7]: 2.4 mg/mL | solubility at 1 h [1, 8]: 2.9 mg/mL | solubility at 24 h [1, 9]: 2.5 mg/mL | solubility at 1 h [1, 10]: 12 mg/mL | solubility at 24 h [1, 11]: 12.2 mg/mL | solubility at 0.5 h ([1]; pH 1.2, 0.1M HCl pH1.2, 0.5 h): 12.5 mg/mL | pH dependency of solubility (in words) [1]: distinct pH dependency
